Measurements published in ChEMBL document CHEMBL1909046, “DrugMatrix in vitro pharmacology data”.
pIC50, pKi: −log10 of the molar value.

Key:
Cytochrome P450 2A6 = target: T1, Cytochrome P450 2A6 (Homo sapiens, UniProt P11509); conditions: bti-tn-5b1-4; further: in other assays of this panel Not Active means under 50% inhibition at 10 µM
T1 sequence (P11509 whole entry): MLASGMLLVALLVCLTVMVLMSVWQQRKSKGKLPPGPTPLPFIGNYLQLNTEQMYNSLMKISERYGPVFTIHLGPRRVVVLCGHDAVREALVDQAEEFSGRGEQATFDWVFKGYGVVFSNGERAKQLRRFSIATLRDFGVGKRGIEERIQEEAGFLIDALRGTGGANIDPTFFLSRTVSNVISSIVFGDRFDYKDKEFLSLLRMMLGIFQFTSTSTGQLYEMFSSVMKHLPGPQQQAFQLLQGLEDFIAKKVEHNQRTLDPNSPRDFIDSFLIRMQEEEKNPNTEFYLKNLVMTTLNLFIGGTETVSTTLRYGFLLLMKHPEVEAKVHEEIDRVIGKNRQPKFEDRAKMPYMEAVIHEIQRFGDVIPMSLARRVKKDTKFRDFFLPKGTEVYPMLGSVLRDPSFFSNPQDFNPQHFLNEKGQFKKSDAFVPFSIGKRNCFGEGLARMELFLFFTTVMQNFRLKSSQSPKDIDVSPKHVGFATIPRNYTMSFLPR

[1] = target: Sodium-dependent noradrenaline transporter (Homo sapiens, UniProt P23975); assay: DRUGMATRIX: Norepinephrine Transporter radioligand binding (ligand: [125I] RTI-55); format: cell membranes, MDCK, Membrane; conditions: Not Active = under 50% inhibition at 10 µM; for IC50: mdck
[2] = target: 5-hydroxytryptamine receptor 2B (Homo sapiens, UniProt P41595); format: cell membranes, CHO-K1, Membrane; conditions: for IC50: cho-k1; on all read-outs here: in other assays of this panel Not Active means under 50% inhibition at 10 µM
[3] = target: T2, 5-hydroxytryptamine receptor 2C (Homo sapiens, UniProt P28335); assay: DRUGMATRIX: Serotonin (5-Hydroxytryptamine) 5-HT2C radioligand binding (ligand: [3H] Mesulergine); format: cell membranes, CHO-K1, Membrane; conditions: cho-k1; Not Active = under 50% inhibition at 10 µM
T2 sequence (P28335 whole entry): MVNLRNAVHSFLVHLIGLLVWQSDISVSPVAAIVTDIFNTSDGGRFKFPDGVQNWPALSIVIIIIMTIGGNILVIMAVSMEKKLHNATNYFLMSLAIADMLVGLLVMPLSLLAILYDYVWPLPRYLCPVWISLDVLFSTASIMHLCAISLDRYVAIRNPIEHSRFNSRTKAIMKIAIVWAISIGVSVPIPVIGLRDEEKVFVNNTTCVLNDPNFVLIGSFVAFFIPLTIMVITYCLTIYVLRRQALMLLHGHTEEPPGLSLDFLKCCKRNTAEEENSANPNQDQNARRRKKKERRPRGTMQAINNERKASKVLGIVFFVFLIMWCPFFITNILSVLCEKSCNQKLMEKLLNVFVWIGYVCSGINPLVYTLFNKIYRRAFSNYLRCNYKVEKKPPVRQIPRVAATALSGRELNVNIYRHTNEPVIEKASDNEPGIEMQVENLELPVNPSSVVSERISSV

Cytochrome P450 2C9 = Cytochrome P450 2C9 (Homo sapiens, UniProt P11712); conditions: bti-tn-5b1-4; further: in other assays of this panel Not Active means under 50% inhibition at 10 µM
Cytochrome P450 2D6 = Cytochrome P450 2D6 (Homo sapiens, UniProt P10635); conditions: bti-tn-5b1-4; further: in other assays of this panel Not Active means under 50% inhibition at 10 µM
Glucocorticoid receptor = target: T3, Glucocorticoid receptor (Homo sapiens, UniProt P04150); conditions: hela s3; further: in other assays of this panel Not Active means under 50% inhibition at 10 µM
T3 sequence (P04150 whole entry): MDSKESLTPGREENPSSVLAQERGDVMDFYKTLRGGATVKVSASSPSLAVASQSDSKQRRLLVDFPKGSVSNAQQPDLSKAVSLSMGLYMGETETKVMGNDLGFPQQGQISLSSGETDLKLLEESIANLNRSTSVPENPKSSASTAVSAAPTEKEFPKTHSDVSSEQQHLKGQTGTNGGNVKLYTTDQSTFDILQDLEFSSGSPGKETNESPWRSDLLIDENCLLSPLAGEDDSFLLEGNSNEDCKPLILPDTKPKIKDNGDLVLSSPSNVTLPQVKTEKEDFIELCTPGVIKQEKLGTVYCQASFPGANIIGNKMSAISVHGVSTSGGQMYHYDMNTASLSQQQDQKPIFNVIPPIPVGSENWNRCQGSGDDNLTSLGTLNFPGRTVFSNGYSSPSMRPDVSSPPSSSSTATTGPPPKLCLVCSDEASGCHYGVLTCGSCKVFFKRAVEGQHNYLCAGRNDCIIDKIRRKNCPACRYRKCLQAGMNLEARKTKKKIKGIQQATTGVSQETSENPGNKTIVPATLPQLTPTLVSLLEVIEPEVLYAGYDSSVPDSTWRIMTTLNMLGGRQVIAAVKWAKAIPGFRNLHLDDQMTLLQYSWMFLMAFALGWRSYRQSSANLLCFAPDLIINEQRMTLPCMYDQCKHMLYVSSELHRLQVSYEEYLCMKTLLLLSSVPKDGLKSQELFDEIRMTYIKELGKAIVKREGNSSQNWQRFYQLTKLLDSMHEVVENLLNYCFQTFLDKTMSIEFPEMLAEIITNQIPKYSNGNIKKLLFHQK

Chain of Sodium-dependent noradrenaline transporter (P23975 whole entry): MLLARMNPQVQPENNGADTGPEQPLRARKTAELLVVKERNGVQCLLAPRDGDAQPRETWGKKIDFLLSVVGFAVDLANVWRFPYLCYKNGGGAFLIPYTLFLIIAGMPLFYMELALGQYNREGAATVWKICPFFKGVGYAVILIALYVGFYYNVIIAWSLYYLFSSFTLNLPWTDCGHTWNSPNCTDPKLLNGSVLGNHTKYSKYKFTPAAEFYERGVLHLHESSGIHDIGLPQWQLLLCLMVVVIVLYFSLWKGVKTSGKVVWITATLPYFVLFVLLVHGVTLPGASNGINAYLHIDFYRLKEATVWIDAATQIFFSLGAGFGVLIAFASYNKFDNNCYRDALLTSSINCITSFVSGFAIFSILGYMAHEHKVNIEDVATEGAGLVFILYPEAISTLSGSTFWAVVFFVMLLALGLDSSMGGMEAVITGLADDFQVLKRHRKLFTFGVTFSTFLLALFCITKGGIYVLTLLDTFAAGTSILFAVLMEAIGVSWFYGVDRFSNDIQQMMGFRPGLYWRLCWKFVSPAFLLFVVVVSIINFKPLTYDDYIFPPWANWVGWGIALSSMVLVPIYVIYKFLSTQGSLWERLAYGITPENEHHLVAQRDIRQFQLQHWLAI
Chain of Cytochrome P450 2D6 (P10635 whole entry): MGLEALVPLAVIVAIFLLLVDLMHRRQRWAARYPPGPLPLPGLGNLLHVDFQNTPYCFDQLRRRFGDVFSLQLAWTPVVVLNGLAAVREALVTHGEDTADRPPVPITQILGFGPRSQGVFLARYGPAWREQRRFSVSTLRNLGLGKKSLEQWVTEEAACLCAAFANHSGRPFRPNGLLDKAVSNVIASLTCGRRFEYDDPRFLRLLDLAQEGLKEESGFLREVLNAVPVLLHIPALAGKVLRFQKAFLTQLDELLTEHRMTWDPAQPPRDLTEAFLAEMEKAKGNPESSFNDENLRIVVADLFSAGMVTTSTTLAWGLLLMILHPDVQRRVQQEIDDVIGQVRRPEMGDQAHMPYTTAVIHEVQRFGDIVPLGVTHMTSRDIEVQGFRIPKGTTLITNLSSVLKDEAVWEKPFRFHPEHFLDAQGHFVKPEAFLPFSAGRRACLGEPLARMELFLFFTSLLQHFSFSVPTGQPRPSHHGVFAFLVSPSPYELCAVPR
Chain of Cytochrome P450 2C9 (P11712 whole entry): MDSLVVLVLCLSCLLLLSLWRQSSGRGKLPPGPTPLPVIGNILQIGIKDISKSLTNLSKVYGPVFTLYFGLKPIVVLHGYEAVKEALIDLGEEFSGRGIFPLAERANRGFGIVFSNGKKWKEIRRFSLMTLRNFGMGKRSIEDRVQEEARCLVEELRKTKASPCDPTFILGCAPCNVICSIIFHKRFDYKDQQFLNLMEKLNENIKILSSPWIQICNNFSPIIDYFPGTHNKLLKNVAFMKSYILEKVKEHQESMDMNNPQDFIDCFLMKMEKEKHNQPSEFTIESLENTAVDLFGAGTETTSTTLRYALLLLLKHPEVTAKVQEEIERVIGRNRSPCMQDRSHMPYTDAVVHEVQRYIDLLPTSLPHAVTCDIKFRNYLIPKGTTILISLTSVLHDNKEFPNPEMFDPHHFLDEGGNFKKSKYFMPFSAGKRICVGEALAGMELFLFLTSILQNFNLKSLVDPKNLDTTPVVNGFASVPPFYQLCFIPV
Chain of 5-hydroxytryptamine receptor 2B (P41595 whole entry): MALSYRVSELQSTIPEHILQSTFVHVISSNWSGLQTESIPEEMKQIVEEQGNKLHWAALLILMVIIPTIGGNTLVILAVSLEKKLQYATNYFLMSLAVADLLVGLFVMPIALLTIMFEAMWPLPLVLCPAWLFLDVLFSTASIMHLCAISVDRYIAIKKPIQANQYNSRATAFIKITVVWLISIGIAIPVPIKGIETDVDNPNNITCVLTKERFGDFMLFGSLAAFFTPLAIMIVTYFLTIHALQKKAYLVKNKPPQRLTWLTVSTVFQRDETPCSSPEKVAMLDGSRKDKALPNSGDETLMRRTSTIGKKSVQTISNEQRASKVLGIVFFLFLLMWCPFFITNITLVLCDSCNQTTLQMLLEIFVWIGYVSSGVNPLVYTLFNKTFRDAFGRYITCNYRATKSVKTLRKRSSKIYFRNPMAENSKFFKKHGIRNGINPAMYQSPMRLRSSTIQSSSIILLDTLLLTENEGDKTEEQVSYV

Compound	IC50 (Cytochrome P450 2A6)	Ki (Cytochrome P450 2A6)	IC50 [1]	IC50 [2]	IC50 [3]	IC50 (Cytochrome P450 2C9)	Ki (Cytochrome P450 2C9)	IC50 (Cytochrome P450 2D6)	Ki (Cytochrome P450 2D6)	IC50 (Glucocorticoid receptor)	pIC50 ([2]; read-out: IC50)	pKi ([2]; read-out: Ki)	pIC50 ([1]; read-out: IC50)	pKi ([1]; read-out: Ki)
CC(N)C12CC3CC(CC(C3)C1)C2 (configuration not stated) [RIMANTADINE]	Not Active	Not Active	Not Active	Not Active	Not Active	Not Active	Not Active	Not Active	Not Active	Not Active	–	–	–	–
CS(=O)(=O)c1ccc(C2=C(c3ccccc3)C(=O)OC2)cc1 [ROFECOXIB]	Not Active	Not Active	Not Active	Not Active	Not Active	Not Active	Not Active	Not Active	Not Active	Not Active	–	–	–	–
Cc1ccnc(NS(=O)(=O)c2ccc(N)cc2)n1 [SULFAMERAZINE]	Not Active	Not Active	Not Active	Not Active	Not Active	Not Active	Not Active	Not Active	Not Active	Not Active	–	–	–	–
CC1=C(/C=C/C(C)=C/C=C/C(C)=C/C(=O)O)C(C)(C)CCC1 [TRETINOIN]	Not Active	Not Active	Not Active	–	Not Active	Not Active	Not Active	Not Active	Not Active	Not Active	6.45	6.64	–	–
C=CCc1ccc2c(c1)OCO2 [SAFROLE]	Not Active	Not Active	Not Active	Not Active	Not Active	Not Active	Not Active	Not Active	Not Active	Not Active	–	–	–	–
CCN1CCCC1CNC(=O)c1cc(S(N)(=O)=O)ccc1OC (configuration not stated) [SULPIRIDE]	Not Active	Not Active	Not Active	Not Active	Not Active	Not Active	Not Active	Not Active	Not Active	Not Active	–	–	–	–
O=C1CC[C@@]2(O)[C@H]3Cc4ccc(O)c5c4[C@@]2(CCN3CC2CC2)[C@H]1O5 [NALTREXONE]	Not Active	Not Active	Not Active	Not Active	Not Active	Not Active	Not Active	–	–	Not Active	–	–	–	–
O=C(OC[C@H]1O[C@@H](OC(=O)c2cc(O)c(O)c(OC(=O)c3cc(O)c(O)c(O)c3)c2)[C@H](OC(=O)c2cc(O)c(O)c(OC(=O)c3cc(O)c(O)c(O)c3)c2)[C@@H](OC(=O)c2cc(O)c(O)c(OC(=O)c3cc(O)c(O)c(O)c3)c2)[C@@H]1OC(=O)c1cc(O)c(O)c(OC(=O)c2cc(O)c(O)c(O)c2)c1)c1cc(O)c(O)c(OC(=O)c2cc(O)c(O)c(O)c2)c1 [TANNIC ACID]	Not Active	Not Active	Not Active	Not Active	Not Active	–	–	Not Active	Not Active	Not Active	–	–	–	–
CN1C(=O)OC(C)(C)C1=O [TRIMETHADIONE]	Not Active	Not Active	Not Active	Not Active	Not Active	–	–	Not Active	Not Active	Not Active	–	–	–	–
CC(C)(C)NC[C@H](O)COc1cccc2c1CCCC2=O [LEVOBUNOLOL]	Not Active	Not Active	Not Active	Not Active	Not Active	Not Active	Not Active	Not Active	Not Active	Not Active	–	–	–	–
Cc1ccc(Cl)c(Nc2ccccc2C(=O)O)c1Cl [MECLOFENAMIC ACID]	Not Active	Not Active	Not Active	Not Active	Not Active	Not Active	Not Active	Not Active	Not Active	Not Active	–	–	–	–
CO[C@@H]1[C@@H](OC)[C@H](C)[C@@](O)(CC(=O)O)O[C@H]1[C@H](C)[C@H]1O[C@@]2(CC[C@@](C)([C@H]3CC[C@@](C)([C@@H]4O[C@@H]([C@H]5O[C@](C)(O)[C@H](C)C[C@@H]5C)C[C@@H]4O[C@@H]4C[C@H](OC)[C@@H](OC)[C@H](C)O4)O3)O2)C[C@H](O)[C@H]1C.N [MADURAMICIN]	Not Active	Not Active	Not Active	Not Active	Not Active	Not Active	Not Active	Not Active	Not Active	Not Active	–	–	–	–
C[C@]12CCC(=O)C[C@@H]1CC[C@@H]1[C@@H]2CC[C@]2(C)[C@@H](O)CC[C@@H]12 [STANOLONE]	Not Active	Not Active	Not Active	Not Active	Not Active	Not Active	Not Active	Not Active	Not Active	Not Active	–	–	–	–
CO[C@@]12[C@H](COC(N)=O)C3=C(C(=O)C(C)=C(N)C3=O)N1C[C@@H]1N[C@@H]12 [MITOMYCIN]	Not Active	Not Active	Not Active	Not Active	Not Active	Not Active	Not Active	Not Active	Not Active	Not Active	–	–	–	–
CC[C@H](C)C(=O)O[C@H]1CCC=C2C=C[C@H](C)[C@H](CC[C@@H]3C[C@@H](O)CC(=O)O3)[C@H]21 [MEVASTATIN]	Not Active	Not Active	Not Active	Not Active	Not Active	Not Active	Not Active	Not Active	Not Active	Not Active	–	–	–	–
CC[C@@]1(O)C(=O)OCc2c1cc1n(c2=O)Cc2cc3c(CN(C)C)c(O)ccc3nc2-1 [TOPOTECAN]	Not Active	Not Active	Not Active	Not Active	Not Active	Not Active	Not Active	Not Active	Not Active	Not Active	–	–	–	–
Cc1cnc(NC(=O)C2=C(O)c3ccccc3S(=O)(=O)N2C)s1 [MELOXICAM]	Not Active	Not Active	Not Active	Not Active	Not Active	Not Active	Not Active	Not Active	Not Active	Not Active	–	–	–	–
CCOC(=O)C1=C(C)NC(C)=C(C(=O)OCC)C1c1ccccc1/C=C/C(=O)OC(C)(C)C [LACIDIPINE]	Not Active	Not Active	–	Not Active	Not Active	–	–	Not Active	Not Active	Not Active	–	–	5.24	5.25
CC[C@H](C)[C@@H](CO[C@@H](Cc1ccccc1)C(=O)N[C@@H](CCS(C)(=O)=O)C(=O)OC(C)C)NC[C@@H](N)CS	Not Active	Not Active	Not Active	Not Active	Not Active	Not Active	Not Active	–	–	Not Active	–	–	–	–
